In ChEMBL document CHEMBL3431459, “Roche carnitine palmitoyltransferase modulator screening data (supplementary data associated with the publication CHEMBL2216752)”:
In brackets after ≈: the same amount, converted by molar mass.

Key:
[1] = target: T1, Carnitine O-palmitoyltransferase 1, liver isoform (Homo sapiens, UniProt P50416); test: (§1) SUPPLEMENTARY: Inhibition of Carnitine palmitoyltransferase 1, liver isoform
T1 sequence (P50416 whole entry): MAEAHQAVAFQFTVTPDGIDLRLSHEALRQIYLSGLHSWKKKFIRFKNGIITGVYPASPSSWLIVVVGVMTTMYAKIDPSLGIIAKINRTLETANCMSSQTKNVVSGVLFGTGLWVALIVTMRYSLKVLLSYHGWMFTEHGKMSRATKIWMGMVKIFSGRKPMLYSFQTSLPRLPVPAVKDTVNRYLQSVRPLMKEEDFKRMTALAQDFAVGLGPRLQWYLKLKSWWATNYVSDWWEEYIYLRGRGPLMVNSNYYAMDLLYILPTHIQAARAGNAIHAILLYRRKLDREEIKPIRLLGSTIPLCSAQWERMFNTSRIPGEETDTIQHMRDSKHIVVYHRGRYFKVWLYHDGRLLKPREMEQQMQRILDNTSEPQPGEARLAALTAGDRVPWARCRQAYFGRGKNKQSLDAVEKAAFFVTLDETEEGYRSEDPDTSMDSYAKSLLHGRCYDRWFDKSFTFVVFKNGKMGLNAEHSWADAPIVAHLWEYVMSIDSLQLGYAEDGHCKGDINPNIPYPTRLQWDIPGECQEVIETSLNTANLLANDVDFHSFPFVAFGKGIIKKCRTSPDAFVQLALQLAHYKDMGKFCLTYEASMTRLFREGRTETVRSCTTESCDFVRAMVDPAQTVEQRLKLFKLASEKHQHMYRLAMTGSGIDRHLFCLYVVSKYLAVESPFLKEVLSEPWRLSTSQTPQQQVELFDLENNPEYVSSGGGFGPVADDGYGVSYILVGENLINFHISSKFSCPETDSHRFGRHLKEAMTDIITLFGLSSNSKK

[2] = target: T2, Carnitine O-palmitoyltransferase 1, liver isoform (Rattus norvegicus, UniProt P32198); test: as §1
T2 sequence (P32198 whole entry): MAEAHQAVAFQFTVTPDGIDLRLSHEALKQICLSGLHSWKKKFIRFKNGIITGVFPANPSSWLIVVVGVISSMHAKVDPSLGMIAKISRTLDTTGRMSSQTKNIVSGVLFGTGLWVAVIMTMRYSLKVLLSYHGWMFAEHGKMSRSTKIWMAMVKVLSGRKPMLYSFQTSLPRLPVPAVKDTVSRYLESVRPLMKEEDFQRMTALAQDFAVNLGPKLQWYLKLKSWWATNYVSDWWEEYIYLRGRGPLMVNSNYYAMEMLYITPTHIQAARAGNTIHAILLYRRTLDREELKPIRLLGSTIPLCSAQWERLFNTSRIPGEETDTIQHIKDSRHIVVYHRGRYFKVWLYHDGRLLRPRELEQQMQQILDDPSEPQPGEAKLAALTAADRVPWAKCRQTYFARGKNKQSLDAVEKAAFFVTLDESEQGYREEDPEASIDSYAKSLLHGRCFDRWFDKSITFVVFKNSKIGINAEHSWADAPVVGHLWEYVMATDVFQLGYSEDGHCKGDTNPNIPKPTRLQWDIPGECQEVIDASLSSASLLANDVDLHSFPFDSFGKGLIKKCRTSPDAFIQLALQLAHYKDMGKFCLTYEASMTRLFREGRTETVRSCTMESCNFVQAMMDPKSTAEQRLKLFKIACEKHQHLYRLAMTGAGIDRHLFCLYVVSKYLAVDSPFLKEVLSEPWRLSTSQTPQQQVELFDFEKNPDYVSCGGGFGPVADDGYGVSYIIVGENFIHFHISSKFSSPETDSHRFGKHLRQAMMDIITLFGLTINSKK

[3] = SUPPLEMENTARY: Lyophilisation Solubility Assay (LYSA); type: physicochemical; conditions: read-out: Kinetic_solubility
[4] = target: T3, Carnitine O-palmitoyltransferase 2, mitochondrial (Homo sapiens, UniProt P23786); test: (§2) SUPPLEMENTARY: Inhibition of Carnitine palmitoyltransferase 2
T3 sequence (P23786 whole entry): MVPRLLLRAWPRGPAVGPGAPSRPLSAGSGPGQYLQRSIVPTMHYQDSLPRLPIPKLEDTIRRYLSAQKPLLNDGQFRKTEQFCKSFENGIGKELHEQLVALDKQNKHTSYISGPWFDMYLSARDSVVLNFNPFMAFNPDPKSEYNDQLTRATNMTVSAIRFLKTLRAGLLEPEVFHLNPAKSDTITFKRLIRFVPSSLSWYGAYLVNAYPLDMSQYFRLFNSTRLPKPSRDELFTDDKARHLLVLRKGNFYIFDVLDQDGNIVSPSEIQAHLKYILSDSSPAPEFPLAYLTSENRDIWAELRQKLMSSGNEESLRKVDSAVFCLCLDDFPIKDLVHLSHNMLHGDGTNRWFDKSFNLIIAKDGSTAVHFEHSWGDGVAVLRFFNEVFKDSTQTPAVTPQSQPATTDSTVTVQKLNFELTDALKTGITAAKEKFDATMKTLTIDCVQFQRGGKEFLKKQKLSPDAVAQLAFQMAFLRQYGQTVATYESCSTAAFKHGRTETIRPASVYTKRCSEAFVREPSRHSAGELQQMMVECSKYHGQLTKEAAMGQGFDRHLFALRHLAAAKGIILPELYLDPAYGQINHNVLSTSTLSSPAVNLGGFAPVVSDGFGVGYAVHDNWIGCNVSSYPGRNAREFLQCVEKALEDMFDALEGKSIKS

[5] = target: T4, Carnitine O-palmitoyltransferase 2, mitochondrial (Rattus norvegicus, UniProt P18886); test: as §2
T4 sequence (P18886 whole entry): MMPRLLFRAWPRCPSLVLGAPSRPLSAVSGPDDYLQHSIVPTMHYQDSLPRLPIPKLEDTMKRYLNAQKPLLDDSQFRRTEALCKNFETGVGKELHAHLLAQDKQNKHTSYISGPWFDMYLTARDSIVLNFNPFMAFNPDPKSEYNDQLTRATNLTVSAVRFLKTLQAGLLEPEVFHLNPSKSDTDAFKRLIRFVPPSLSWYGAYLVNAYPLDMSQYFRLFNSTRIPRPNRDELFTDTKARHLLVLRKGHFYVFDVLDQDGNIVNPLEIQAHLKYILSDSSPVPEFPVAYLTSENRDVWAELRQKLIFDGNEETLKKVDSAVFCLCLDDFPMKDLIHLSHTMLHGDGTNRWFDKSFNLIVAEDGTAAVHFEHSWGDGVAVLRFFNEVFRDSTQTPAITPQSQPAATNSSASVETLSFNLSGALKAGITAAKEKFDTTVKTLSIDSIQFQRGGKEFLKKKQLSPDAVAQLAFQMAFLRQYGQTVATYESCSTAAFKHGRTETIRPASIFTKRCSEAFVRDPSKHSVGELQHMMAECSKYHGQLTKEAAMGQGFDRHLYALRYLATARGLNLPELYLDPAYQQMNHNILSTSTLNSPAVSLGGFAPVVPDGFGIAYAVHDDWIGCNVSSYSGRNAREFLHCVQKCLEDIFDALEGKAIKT

[6] = target: T5, Carnitine O-palmitoyltransferase 1, muscle isoform (Homo sapiens, UniProt Q92523); test: SUPPLEMENTARY: Inhibition of Carnitine palmitoyltransferase 1, muscle isoform; parameters: species or system Muscle tissue
T5 sequence (Q92523 whole entry): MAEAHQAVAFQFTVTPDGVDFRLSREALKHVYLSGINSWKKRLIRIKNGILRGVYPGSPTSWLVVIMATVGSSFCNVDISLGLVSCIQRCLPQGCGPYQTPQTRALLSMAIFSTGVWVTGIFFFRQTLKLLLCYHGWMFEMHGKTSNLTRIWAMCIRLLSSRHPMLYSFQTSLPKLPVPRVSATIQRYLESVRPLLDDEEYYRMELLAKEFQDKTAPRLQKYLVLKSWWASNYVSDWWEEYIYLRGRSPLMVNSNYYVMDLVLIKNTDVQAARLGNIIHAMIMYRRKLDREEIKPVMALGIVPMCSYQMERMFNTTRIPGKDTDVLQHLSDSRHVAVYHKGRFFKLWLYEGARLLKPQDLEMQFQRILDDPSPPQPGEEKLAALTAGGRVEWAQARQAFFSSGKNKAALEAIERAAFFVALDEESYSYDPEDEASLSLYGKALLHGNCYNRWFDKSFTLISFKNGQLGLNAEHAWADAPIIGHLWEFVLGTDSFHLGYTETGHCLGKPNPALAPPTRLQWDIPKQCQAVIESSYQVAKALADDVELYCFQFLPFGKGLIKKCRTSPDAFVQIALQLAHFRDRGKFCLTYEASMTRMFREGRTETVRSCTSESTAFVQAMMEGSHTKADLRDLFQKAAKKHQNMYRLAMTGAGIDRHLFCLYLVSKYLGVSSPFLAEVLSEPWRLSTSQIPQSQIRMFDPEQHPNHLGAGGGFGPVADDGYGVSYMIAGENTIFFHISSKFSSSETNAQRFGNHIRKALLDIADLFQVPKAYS

[7] = SUPPLEMENTARY: Lipophilicity (log D) Determination by high-throughput shake-flask; type: physicochemical; conditions: octanol/water
[8] = SUPPLEMENTARY: PAMPA permeability assay; type: physicochemical; conditions: read-out: Permeability

IC50 [1] [nM]	IC50 [2] [nM]	solubility kinetic [3] [µg/mL]	IC50 [4] [µM]	IC50 [5] [µM]	IC50 [6] [µM]	logD [7]	Papp [8] [×10⁻⁶ cm/s]	SMILES
87.8	66.6	242 (≈ 487 µM)	1.99	2.67	> 100	2.38	3.16	CN1CCN(c2cc3c(cc2Cl)CN(C(=O)[C@H]2CCCCN2C(=O)COc2ccccc2)C3)CC1
511	555	129 (≈ 339 µM)	> 100	> 100	> 100	2.65	5.2	Cc1cc(-c2n[nH]c([C@H]3CCCCN3C(=O)COc3ccccc3)n2)n(C)n1
116	144	41 (≈ 111 µM)	> 100	> 100	> 100	2.6	9.63	Cc1cc(-c2nc([C@H]3CCCCN3C(=O)COc3ccccc3)no2)on1
110	90.8	45 (≈ 102 µM)	> 100	> 100	> 100	2.04	5.17	NS(=O)(=O)c1ccc(-c2noc(C3C4CC4CN3C(=O)COc3ccccc3)n2)cc1 (configuration not stated)
161	232	30 (≈ 73.4 µM)	0.468	0.539	> 100	3.23	5.52	CCOc1ccc2c(c1)CN(C(=O)[C@H]1CCCCN1C(=O)COc1ccccc1)C2
87.4	683	53 (≈ 132 µM)	13.9	61.5	> 100	2.71	1.64	O=C(COc1ccccc1)N1CCCC[C@@H]1c1nc(-c2ccc3[nH]ncc3c2)n[nH]1

The remaining lines, values behind:

SMILES	IC50 [1] [nM]	IC50 [2] [nM]	solubility kinetic [3] [µg/mL]	IC50 [4] [µM]	IC50 [5] [µM]	IC50 [6] [µM]	logD [7]	Papp [8] [×10⁻⁶ cm/s]
O=C(O)Cc1ccc(NC(=O)c2ccc3ccn(S(=O)(=O)c4cccc(Cl)c4)c3c2)cc1	66.8	86.2	17 (≈ 36.3 µM)	> 100	> 100	1.35	1.3	2.24
COc1ccc(Cl)cc1S(=O)(=O)N1COCc2ccc(C(=O)Nc3nc(CC(=O)O)cs3)cc21	54	82.9	7 (≈ 13.4 µM)	> 100	> 100	1.38	-0.47	1.31
COc1ccc(Cl)cc1S(=O)(=O)Nc1cc(C(=O)Nc2ccc(C(=O)O)cc2)cn(C)c1=O	127	80.4	13 (≈ 26.4 µM)	3.23	42.4	> 100	-0.34	0.27
COc1ccc(Cl)cc1S(=O)(=O)N1CC(C(=O)O)Oc2ccc(C(=O)Nc3ccccc3F)cc21 (configuration not stated)	218	169	> 617	> 100	> 100	> 100	-0.49	0.38
Cc1cc(C)cc(S(=O)(=O)N2CCc3ccc(C(=O)Nc4nc(CC(=O)O)cs4)cc32)c1	16.7	32	5 (≈ 10.6 µM)	> 100	> 100	0.531	2.37	2.22
COc1ccc(Cl)cc1S(=O)(=O)N1CCOc2ccc(C(=O)Nc3ccc(C(=O)O)c(F)c3)cc21	65.1	80.5	15 (≈ 28.8 µM)	6.3	23.4	1.8	0.29	1.71
COc1ccc(C)cc1S(=O)(=O)n1ccc2ccc(C(=O)Nc3ccc(CC(=O)O)cc3)cc21	203	118	226 (≈ 472 µM)	83.9	> 100	1.54	0.79	2.82
COc1ccc(Cl)cc1CN1C(=O)OCc2ccc(C(=O)Nc3nc(CC(=O)O)cs3)cc21	132	203	50 (≈ 102 µM)	> 100	> 100	21.9	0.06	1.7
